One data set concerns pigmentation. The data set can be described thus: Animal experiments on inhibition of pigmentation (general statement, no method given). The format is in vivo. The conditions noted are these: compared with free fatty acids or alkyl esters thereof.
Data set [1] is described as follows: Solubility of linoleic acid in a silicone oil or a mixed silicone oil.

Each structure is given as a SMILES string.

As to `CCCCCCCCCCCCCCCC(=O)O` [palmitic acid], in the data set with pigmentation, the “effects on inhibition of pigmentation” value was “no such significant effects”.

Turning to `CCCCC/C=C\C/C=C\CCCCCCCC(=O)O` [linoleic acid], the Solubility in dimethylpolysiloxane entry in data set [1] was “not soluble”.

For the compound `CCCCCCCCCCCCCCCCCC(=O)O` [stearic acid], the “effects on inhibition of pigmentation” value in the data set with pigmentation was “no such significant effects”.

Turning to `CC/C=C\C/C=C\C/C=C\CCCCCCCC(=O)O` [α-linolenic acid], the Solubility in dimethylpolysiloxane result in data set [1] is given as “not soluble”.

The values above are taken from patent EP0470275B1, “Skin whitening cosmetics” (priority 1990, dated 1992).
